Data taken from article PMC10894229, “Novel antimicrobial peptides against Cutibacterium acnes designed by deep learning” (Scientific Reports, 2024).
Where two headings read alike, the source gives them in different places.

System: C. acnes (BNCC 336649)
Conditions: for Concentration with antimicrobial activity >50%: C. acnes; for Concentration with antimicrobial activity >50% / Category of in vitro test antimicrobial activity against C. acnes: supplementary Table 5; for Antimicrobial activity > 50% against C. acnes: broth microdilution, 48 h, OD 630 nm
Procedure: The strain of C. acnes (BNCC 336649) was cultured in Wilkins-Chalgren Anaerobe Broth (QingDao RiShui Bio-technologies, 11071) at 37 °C under an anaerobic atmosphere performed by a Labiophy HL-B automatic hypoxic workstation (Dalian, Liaoning Province, Labiophy HL-B), inflated with a gas mix of 15% carbon dioxide, 83% nitrogen, and 2% hydrogen.
Logarithmic phase growth bacteria were used for antimicrobial testing.
To determine the MIC values, the broth microdilution method was used. […] Briefly, peptide samples were prepared as a stock solution in water and then diluted. 180 μL of the bacterial suspension (10^7 CFU/mL) and 20 μL of the tested sample were added together into 96-Well Deep Well Plates and incubated 24 h for E. coli and S. aureus or 48 h for C. acnes and C. albicans. For each test, two columns of the plate were kept for sterility control (broth only) and growth control (broth with bacterial inoculums, no antibiotics). The optical density of cultures was measured at 630 nm by a microplate reader (SYNERGY-H1, BioTek, USA) to estimate bacterial growth. All experiments were conducted in triplicate. We used ciprofloxacin (CPFX) as the antibiotic control for antimicrobial testing.

Sequence | Concentration with antimicrobial activity >50% | Antimicrobial activity > 50% against C. acnes (at 25 µg/mL) | Antimicrobial activity > 50% against C. acnes (at 50 µg/mL) | Antimicrobial activity > 50% against C. acnes (at 100 µg/mL) | Category of in vitro test antimicrobial activity against C. acnes
KALAATVKKVAKLIK [AMP-34] | no | No (A peptide was deemed to have antimicrobial activity if C. acnes growth was inhibited by more than 50% at a given concentration) | No (A peptide was deemed to have antimicrobial activity if C. acnes growth was inhibited by more than 50% at a given concentration) | No (A peptide was deemed to have antimicrobial activity if C. acnes growth was inhibited by more than 50% at a given concentration) | No AMP
KIAKRLAKKILNAI [AMP-10] | 12.5 µg/mL | Inhibit (A peptide was deemed to have antimicrobial activity if C. acnes growth was inhibited by more than 50% at a given concentration) | Inhibit (A peptide was deemed to have antimicrobial activity if C. acnes growth was inhibited by more than 50% at a given concentration) | Inhibit (A peptide was deemed to have antimicrobial activity if C. acnes growth was inhibited by more than 50% at a given concentration) | Strong AMP
KIFWRVAKSLFKSY [AMP-30] | 100 µg/mL | No (A peptide was deemed to have antimicrobial activity if C. acnes growth was inhibited by more than 50% at a given concentration) | No (A peptide was deemed to have antimicrobial activity if C. acnes growth was inhibited by more than 50% at a given concentration) | Inhibit (A peptide was deemed to have antimicrobial activity if C. acnes growth was inhibited by more than 50% at a given concentration) | Weak AMP
KKLAGLAKKWWKPLR [AMP-22] | – | No (A peptide was deemed to have antimicrobial activity if C. acnes growth was inhibited by more than 50% at a given concentration) | Inhibit (A peptide was deemed to have antimicrobial activity if C. acnes growth was inhibited by more than 50% at a given concentration) | Inhibit (A peptide was deemed to have antimicrobial activity if C. acnes growth was inhibited by more than 50% at a given concentration) | Medium AMP
KKLAGLAWKALRKAK [AMP-6] | 100 µg/mL | No (A peptide was deemed to have antimicrobial activity if C. acnes growth was inhibited by more than 50% at a given concentration) | No (A peptide was deemed to have antimicrobial activity if C. acnes growth was inhibited by more than 50% at a given concentration) | Inhibit (A peptide was deemed to have antimicrobial activity if C. acnes growth was inhibited by more than 50% at a given concentration) | Weak AMP
KLVKRVLKKLRKLF [AMP-8] | – | Inhibit (A peptide was deemed to have antimicrobial activity if C. acnes growth was inhibited by more than 50% at a given concentration) | Inhibit (A peptide was deemed to have antimicrobial activity if C. acnes growth was inhibited by more than 50% at a given concentration) | Inhibit (A peptide was deemed to have antimicrobial activity if C. acnes growth was inhibited by more than 50% at a given concentration) | Strong AMP
KRIGSILGRWLHLAK [AMP-2] | 25 µg/mL | Inhibit (A peptide was deemed to have antimicrobial activity if C. acnes growth was inhibited by more than 50% at a given concentration) | Inhibit (A peptide was deemed to have antimicrobial activity if C. acnes growth was inhibited by more than 50% at a given concentration) | Inhibit (A peptide was deemed to have antimicrobial activity if C. acnes growth was inhibited by more than 50% at a given concentration) | Medium AMP
KRLIKWLNVAKKVV [AMP-3] | 100 µg/mL | No (A peptide was deemed to have antimicrobial activity if C. acnes growth was inhibited by more than 50% at a given concentration) | No (A peptide was deemed to have antimicrobial activity if C. acnes growth was inhibited by more than 50% at a given concentration) | Inhibit (A peptide was deemed to have antimicrobial activity if C. acnes growth was inhibited by more than 50% at a given concentration) | Weak AMP
LLSLIRRTVARLKKA [AMP-18] | 25 µg/mL | Inhibit (A peptide was deemed to have antimicrobial activity if C. acnes growth was inhibited by more than 50% at a given concentration) | Inhibit (A peptide was deemed to have antimicrobial activity if C. acnes growth was inhibited by more than 50% at a given concentration) | Inhibit (A peptide was deemed to have antimicrobial activity if C. acnes growth was inhibited by more than 50% at a given concentration) | Medium AMP
LQLLKQFRKVLKKLS [AMP-13] | 25 µg/mL | Inhibit (A peptide was deemed to have antimicrobial activity if C. acnes growth was inhibited by more than 50% at a given concentration) | Inhibit (A peptide was deemed to have antimicrobial activity if C. acnes growth was inhibited by more than 50% at a given concentration) | Inhibit (A peptide was deemed to have antimicrobial activity if C. acnes growth was inhibited by more than 50% at a given concentration) | Medium AMP
NRWLKAAKVAAKVI [AMP-36] | no | No (A peptide was deemed to have antimicrobial activity if C. acnes growth was inhibited by more than 50% at a given concentration) | No (A peptide was deemed to have antimicrobial activity if C. acnes growth was inhibited by more than 50% at a given concentration) | No (A peptide was deemed to have antimicrobial activity if C. acnes growth was inhibited by more than 50% at a given concentration) | No AMP
